Experimental data published in ChEMBL document CHEMBL1201862, “PubChem BioAssay data set” (2004).
Active and inactive are the calls of the source.

How the values were obtained:
Kallikrein-7 = Kallikrein-7 (Homo sapiens, UniProt P49862); assay: Fluorescence Intensity-based biochemical primary high throughput dose response assay to identify activators of kallikrein-7 (K7) zymogen.
[1] = biological target: T1, Short transient receptor potential channel 4 (Mus musculus, UniProt Q9QUQ5); assay: calcium entry via TRPC4 opening agents – cell-based, HEK293 TRPC4/mu-opioid, Fluo-4 calcium, dose response (AID 434937); type: functional
T1 sequence (Q9QUQ5 whole entry): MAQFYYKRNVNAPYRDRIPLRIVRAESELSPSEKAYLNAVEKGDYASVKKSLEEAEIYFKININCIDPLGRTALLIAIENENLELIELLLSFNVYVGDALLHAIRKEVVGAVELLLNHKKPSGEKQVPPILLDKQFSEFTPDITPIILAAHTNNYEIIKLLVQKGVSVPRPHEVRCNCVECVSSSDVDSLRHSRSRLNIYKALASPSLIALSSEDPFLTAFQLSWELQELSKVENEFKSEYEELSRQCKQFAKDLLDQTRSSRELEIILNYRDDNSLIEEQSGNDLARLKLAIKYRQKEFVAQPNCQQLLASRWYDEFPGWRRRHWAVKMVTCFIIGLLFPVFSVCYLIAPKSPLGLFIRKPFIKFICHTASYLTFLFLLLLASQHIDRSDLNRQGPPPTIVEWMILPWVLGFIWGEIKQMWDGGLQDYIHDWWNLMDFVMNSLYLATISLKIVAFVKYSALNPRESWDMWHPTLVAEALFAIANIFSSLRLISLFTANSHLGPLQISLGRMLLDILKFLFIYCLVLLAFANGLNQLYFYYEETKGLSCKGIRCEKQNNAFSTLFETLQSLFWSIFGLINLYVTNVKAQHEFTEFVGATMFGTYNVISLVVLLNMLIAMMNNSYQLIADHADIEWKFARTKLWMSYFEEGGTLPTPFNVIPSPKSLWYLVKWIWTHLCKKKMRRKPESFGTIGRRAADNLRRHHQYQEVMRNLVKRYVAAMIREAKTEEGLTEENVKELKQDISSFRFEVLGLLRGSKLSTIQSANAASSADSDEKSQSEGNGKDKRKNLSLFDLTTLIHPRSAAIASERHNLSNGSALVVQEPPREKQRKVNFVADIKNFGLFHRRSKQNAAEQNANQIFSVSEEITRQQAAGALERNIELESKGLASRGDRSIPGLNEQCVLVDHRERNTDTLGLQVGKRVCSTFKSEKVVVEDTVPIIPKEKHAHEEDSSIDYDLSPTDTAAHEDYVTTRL

[2] = HGIII-sPLA2 enzyme inhibition potency – biochemical, QFRET, IC50, dose response (AID 743457);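 also: green fluorescence rise as the enzyme cleaves BODIPY PC-A2 in liposomes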
HeLa = assay: viability loss in HeLa cells – cell-based, ATP luminescence, cherry-pick samples, cytotoxicity control, dose response (AID 687004); type: functional; conditions: Homo sapiens
[3] = HEK293 Cytotoxicity Assay Measured in Cell-Based System Using Plate Reader - 7071-01_Inhibitor_Dose_CherryPick_Activity_Set2.; type: functional
Cryptococcus neoformans = assay: PubChem AID 686997; type: functional, organism-based
HEK293 = assay: viability loss in HEK293T cells – cell-based, ATP luminescence, cherry-pick samples, cytotoxicity control, dose response (AID 687005); type: functional; conditions: Homo sapiens;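 also: cells exposed to compound for 48 hours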
[4] = biological target: Potassium channel subfamily K member 3 (Homo sapiens, UniProt O14649); assay: inhibition of human KCNK3 channel flux – CHO cells, FluxOR thallium flux, SAR follow-up (AID 652212); type: functional
Sequence of Potassium channel subfamily K member 3 (O14649 whole entry): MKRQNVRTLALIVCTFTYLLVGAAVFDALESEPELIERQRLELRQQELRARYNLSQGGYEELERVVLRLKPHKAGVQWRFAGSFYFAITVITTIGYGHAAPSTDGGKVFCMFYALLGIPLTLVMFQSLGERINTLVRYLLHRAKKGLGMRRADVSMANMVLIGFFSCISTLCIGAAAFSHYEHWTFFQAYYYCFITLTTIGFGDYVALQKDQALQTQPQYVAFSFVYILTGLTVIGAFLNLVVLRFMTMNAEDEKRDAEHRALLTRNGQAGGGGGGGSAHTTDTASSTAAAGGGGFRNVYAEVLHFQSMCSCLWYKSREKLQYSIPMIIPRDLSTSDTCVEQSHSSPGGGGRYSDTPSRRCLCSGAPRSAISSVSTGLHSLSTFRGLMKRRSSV

[5] = biological target: Voltage-gated inwardly rectifying potassium channel KCNH2 (Homo sapiens, UniProt Q12809); assay: off-target hERG block by TASK1 inhibitor candidates – FluxOR thallium flux, concentration-response, CHO cells, selectivity assay for TASK1 inhibitor project, SAR follow-up (AID 652194); type: functional, cell-based
Sequence of Voltage-gated inwardly rectifying potassium channel KCNH2 (Q12809 whole entry): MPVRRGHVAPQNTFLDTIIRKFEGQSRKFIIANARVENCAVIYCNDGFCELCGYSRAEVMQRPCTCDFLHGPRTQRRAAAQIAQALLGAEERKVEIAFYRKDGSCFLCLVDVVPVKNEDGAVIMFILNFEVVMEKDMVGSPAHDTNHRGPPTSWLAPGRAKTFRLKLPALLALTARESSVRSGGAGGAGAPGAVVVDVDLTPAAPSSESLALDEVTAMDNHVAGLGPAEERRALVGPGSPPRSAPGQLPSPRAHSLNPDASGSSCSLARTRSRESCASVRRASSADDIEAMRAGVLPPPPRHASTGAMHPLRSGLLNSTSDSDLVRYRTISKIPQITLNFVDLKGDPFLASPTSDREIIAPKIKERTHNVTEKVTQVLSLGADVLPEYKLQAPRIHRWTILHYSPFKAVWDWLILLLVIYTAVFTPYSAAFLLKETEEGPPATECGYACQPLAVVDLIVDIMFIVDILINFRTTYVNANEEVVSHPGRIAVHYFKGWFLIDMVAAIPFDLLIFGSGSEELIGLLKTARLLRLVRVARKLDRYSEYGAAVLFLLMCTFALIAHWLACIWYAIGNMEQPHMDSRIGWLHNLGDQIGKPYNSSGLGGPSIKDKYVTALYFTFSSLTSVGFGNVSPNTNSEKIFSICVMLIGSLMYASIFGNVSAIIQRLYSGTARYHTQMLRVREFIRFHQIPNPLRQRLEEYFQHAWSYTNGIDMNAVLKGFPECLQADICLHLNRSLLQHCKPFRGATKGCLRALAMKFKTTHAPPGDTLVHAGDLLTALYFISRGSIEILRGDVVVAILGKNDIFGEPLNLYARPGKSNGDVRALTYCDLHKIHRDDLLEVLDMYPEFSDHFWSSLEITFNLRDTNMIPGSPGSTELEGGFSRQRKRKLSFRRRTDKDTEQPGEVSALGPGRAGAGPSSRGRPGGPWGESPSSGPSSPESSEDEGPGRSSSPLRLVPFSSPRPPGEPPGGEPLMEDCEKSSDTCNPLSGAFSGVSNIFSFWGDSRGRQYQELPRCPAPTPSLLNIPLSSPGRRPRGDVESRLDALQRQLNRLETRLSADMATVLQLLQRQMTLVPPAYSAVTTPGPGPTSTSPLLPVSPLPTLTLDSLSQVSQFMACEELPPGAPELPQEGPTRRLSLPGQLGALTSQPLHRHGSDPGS

[6] = biological target: Potassium channel subfamily K member 9 (Homo sapiens, UniProt Q9NPC2); assay: KCNK9 flux blockade, concentration-response – cell-based, FluxOR thallium flux, selectivity assay for TASK1 inhibitor project, SAR follow-up (AID 652211); type: functional;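 also: potency is for inhibitors of the channel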
Sequence of Potassium channel subfamily K member 9 (Q9NPC2 whole entry): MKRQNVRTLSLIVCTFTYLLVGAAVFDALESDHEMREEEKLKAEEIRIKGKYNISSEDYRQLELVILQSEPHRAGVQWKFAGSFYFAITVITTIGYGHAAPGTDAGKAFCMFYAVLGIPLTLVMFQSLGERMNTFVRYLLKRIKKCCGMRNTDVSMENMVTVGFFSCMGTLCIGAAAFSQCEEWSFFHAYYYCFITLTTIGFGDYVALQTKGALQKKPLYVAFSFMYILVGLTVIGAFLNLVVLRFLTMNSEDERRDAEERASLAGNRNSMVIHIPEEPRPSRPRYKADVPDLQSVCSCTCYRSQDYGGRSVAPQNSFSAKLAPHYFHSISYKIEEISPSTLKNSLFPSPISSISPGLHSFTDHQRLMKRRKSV

[7] = biological target: COUP transcription factor 2 (Homo sapiens, UniProt P24468); assay: Luminescence-based cell-based high throughput dose response assay to identify inhibitors of COUP-TFII (NR2F2).; type: functional;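 also: HEK293 cells transiently cotransfected with COUP-TFII expression vector and reporter; luciferase reporter luminescence driven by COUP-TFII from the pX2-168 reporter plasmid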
Sequence of COUP transcription factor 2 (P24468 whole entry): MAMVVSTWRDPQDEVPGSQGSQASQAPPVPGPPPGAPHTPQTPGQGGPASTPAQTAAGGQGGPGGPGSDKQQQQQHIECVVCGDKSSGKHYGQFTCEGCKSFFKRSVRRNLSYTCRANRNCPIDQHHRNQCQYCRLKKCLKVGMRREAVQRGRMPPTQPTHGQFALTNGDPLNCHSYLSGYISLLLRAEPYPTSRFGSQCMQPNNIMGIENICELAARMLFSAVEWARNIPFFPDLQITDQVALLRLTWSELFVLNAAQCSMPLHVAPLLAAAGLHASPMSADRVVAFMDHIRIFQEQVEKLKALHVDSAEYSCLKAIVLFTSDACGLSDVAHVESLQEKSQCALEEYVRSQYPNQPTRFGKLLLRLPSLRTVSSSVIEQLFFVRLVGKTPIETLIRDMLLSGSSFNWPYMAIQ

Protein Wnt-3a = Protein Wnt-3a (Mus musculus, UniProt P27467); assay: antagonism of Wnt3a pathway luciferase reporter – Wnt-LIGHT cells, luminescence, selectivity assay for Gli-SUFU antagonist project, dose response (AID 651570); type: functional; conditions: read-out: IC50_Mean;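 also: Wnt-LIGHT reporter cells stimulated with conditioned medium from Wnt3a-producing cells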
Sequence of Protein Wnt-3a (P27467 whole entry): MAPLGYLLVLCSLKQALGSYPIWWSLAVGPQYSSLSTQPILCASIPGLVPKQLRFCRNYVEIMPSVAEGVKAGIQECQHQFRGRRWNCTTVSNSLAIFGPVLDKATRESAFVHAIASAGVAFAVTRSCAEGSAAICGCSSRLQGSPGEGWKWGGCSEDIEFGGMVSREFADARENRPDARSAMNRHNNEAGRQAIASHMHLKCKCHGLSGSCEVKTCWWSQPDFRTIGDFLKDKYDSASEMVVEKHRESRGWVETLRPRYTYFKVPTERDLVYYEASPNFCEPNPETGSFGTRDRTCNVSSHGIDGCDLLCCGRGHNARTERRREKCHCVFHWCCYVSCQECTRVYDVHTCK

[8] = biological target: FAD-linked sulfhydryl oxidase ALR (Homo sapiens, UniProt P55789); assay: ALR-catalysed DTT oxidation blockers – biochemical, H2O2 detection, luminescence, cherry-pick, dose response (AID 493248)
Sequence of FAD-linked sulfhydryl oxidase ALR (P55789 whole entry): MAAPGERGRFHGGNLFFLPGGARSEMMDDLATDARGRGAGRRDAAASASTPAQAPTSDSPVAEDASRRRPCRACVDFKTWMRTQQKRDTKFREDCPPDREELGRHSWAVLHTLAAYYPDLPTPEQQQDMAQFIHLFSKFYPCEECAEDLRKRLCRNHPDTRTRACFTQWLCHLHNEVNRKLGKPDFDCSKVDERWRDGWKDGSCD

[9] = Luminescence Cell-Based Dose Response HTS to Identify Activators of Luciferase Translation or Activity in H4 […] Cells. [Related pubchem assays: 1829 (Project Summary), 1814 (Primary HTS)]; type: functional
[10] = biological target: T2, Oxysterols receptor LXR-beta (Homo sapiens, UniProt P55055); type: functional, cell-based;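 also: agonist activity at LXR measured by a cell-based luminescence readout across a dose range, run as a counterscreen for daf-12 agonists; HEK293 cells with Gal4-LXR fusion and GAL4-driven luciferase reporter; potency for activation of Gal4-LXR reporter so compounds are agonists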
T2 sequence (P55055 whole entry): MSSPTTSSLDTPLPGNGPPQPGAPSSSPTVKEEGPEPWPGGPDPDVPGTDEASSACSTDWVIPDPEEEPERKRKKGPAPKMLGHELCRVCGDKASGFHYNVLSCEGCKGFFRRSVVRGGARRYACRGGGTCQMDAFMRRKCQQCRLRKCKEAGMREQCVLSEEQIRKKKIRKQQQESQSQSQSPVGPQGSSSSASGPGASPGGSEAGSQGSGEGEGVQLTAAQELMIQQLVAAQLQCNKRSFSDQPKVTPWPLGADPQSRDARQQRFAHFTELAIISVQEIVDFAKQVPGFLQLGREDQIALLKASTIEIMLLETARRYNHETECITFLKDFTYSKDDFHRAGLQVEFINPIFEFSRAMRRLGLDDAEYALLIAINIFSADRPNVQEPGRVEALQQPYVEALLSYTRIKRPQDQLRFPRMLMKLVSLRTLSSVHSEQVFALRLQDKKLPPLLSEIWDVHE

[11] = Luminescence Cell-Based Dose Response to Identify Activators of Luciferase Translation or Activity in H4-C Neuroglioblastoma Cells. [Related pubchem assays: 1829 (Project Summary), 1814 (Primary HTS)]; type: functional
[12] = Luminescence Cell-Based Dose Confirmation to Identify Activators of 5'UTR Stem-Loop Driven Alpha-Synuclein mRNA Translation in H4 Neuroglioblastoma Cells. [Related pubchem assays: 1829 (Project Summary), 1814 (Primary HTS)]; type: functional
H4 = assay: Luminescence Cell-Based Dose Response HTS to Identify Activators of 5'UTR Stem-Loop Driven Prion Protein mRNA Translation in H4 Neuroglioblastoma Cells. [Related pubchem assays: 1829 (Project Summary), 1814 (Primary HTS)]; type: functional; conditions: Homo sapiens
[13] = Luminescence Cell-Based Dose Response to Identify Activators of 5'UTR Stem-Loop Driven Prion Protein mRNA Translation in H4-C Neuroglioblastoma Cells. [Related pubchem assays: 1829 (Project Summary), 1814 (Primary HTS)]; type: functional
Streptococcus = assay: GAS UMAA2166 growth inhibition – luminescence, BacTiterGlo, counter-screen for streptokinase expression inhibitor project, dose response (AID 1915); type: functional, organism-based;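 also: potency for reduction of bacterial viability or growth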
[14] = NIH-3T3 fibroblast cytotoxicity, dose response, cytotoxicity control, cell-based, fluorescence, Alamar Blue, secondary assay (AID 2327); type: functional;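 also: NIH-3T3 mouse fibroblasts cultured with fluconazole at 8 µg/mL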
[15] = potency of ADAM10 substrate cleavage blockers – biochemical, QFRET, dose response (AID 743254);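 also: ADAM10 enzyme with the DM2 quenched FRET peptide as substrate; EDANS fluorescence gain as the protease cuts the substrate; inhibitor potency against ADAM10 proteolytic activity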
[16] = biological target: Disintegrin and metalloproteinase domain-containing protein 17 (Homo sapiens, UniProt P78536); assay: inhibition of ADAM17 substrate cleavage – biochemical, quenched FRET substrate, counter-screen for ADAM10 exosite inhibitor project, dose response (AID 743253)
Sequence of Disintegrin and metalloproteinase domain-containing protein 17 (P78536 whole entry, the tested form may be a part): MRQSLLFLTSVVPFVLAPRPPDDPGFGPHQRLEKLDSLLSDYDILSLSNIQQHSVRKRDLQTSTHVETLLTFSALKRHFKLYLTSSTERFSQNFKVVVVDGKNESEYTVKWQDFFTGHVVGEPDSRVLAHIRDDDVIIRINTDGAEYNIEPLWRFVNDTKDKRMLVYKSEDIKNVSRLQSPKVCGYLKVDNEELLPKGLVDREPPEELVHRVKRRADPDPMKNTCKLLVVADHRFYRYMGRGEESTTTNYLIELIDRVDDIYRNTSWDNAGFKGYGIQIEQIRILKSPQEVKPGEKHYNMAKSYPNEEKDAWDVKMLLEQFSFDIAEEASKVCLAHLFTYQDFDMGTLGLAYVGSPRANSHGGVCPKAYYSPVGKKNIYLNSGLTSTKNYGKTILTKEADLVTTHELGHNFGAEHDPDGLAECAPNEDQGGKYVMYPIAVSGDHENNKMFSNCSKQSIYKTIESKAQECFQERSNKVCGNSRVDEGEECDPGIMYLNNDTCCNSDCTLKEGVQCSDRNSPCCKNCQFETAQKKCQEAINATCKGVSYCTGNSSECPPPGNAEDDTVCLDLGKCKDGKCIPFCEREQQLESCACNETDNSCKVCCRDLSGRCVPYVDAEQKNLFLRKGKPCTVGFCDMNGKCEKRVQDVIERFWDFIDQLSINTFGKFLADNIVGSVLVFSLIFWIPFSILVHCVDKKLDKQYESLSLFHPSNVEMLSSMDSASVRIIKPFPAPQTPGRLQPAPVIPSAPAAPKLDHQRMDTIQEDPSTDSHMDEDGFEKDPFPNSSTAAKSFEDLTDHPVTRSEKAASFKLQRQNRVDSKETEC

[17] = tested on: Streptococcus sp. 'group A'; assay: Streptococcus pyogenes SK(-)GAS viability under kanamycin – luminescence, BacTiterGlo, confirmation, counter-screen for streptokinase expression inhibitor project, dose response (AID 1900); type: functional, organism-based
[18] = fluconazole-exposed Candida albicans growth modulators – fluorescence, retest, confirmation (AID 2467); type: functional, cell-based
Estrogen receptor beta = Estrogen receptor beta (Homo sapiens, UniProt Q92731);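 also: recombinant ER-beta bound to coactivator SRC1 peptide in presence of estradiol agonist; inhibitors block coactivator peptide binding and lower the FRET signal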
[19] = Late stage assay provider results from the probe development effort to identify inhibitors of the Plasmodium falciparum M18 Aspartyl Aminopeptidase (M18AAP): radiolabel-based cell-based dose response assay to identify compounds that inhibit P. falciparum growth in RBCs, Set 2..; type: functional
[20] = biological target: T3, High affinity choline transporter 1 (Homo sapiens, UniProt Q9GZV3); assay: inhibition of SLC5A7-mediated choline transport – cell-based, HEK-293 hCHT, [3H]-choline uptake, dose response (AID 652177); type: functional
T3 sequence (Q9GZV3 whole entry): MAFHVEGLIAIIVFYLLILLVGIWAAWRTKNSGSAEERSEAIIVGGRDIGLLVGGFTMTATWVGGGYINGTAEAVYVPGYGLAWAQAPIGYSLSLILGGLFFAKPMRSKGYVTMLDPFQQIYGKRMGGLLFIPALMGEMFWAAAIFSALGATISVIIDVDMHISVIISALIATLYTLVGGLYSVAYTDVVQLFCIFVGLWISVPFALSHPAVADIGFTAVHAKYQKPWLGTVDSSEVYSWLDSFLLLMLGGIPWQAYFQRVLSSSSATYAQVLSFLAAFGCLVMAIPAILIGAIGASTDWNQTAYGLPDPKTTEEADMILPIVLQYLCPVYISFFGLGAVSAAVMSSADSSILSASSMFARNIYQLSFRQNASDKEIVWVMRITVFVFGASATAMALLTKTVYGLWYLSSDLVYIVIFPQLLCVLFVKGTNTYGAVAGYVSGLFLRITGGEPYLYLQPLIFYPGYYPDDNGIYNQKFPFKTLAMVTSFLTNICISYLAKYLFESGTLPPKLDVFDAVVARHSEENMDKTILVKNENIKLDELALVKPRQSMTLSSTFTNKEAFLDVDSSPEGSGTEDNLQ

[21] = A Cell-Based Confirmatory Screen for Compounds that Inhibit VEEV, TC-83 (8).; type: functional
[22] = HEK293 cell viability loss – cherry-picked samples, cytotoxicity control, dose response (AID 1053185); type: functional, cell-based
[23] = A549 cell viability loss – cherry-picked samples, cytotoxicity control, dose response (AID 1053184); type: functional, cell-based
[24] = HepG2 cell viability loss – cherry-picked samples, cytotoxicity control, dose response (AID 1053183); type: functional, cell-based
[25] = human cervical cancer cell viability loss – 24 h, plate reader, dry powder, cytotoxicity control, dose response (AID 686928); type: functional, cell-based; conditions: HeLa
[26] = loss of viability in embryonic kidney cells – cell-based, HEK293T, ATP luminescence, dry powder, cytotoxicity control, dose response (AID 652119); type: functional; conditions: HEK293
[27] = biological target: Protein disulfide-isomerase (Homo sapiens, UniProt P07237); assay: inhibition of PDI-mediated insulin reduction – biochemical, turbidity, dry powder samples, set 2, confirmation (AID 652146)
Sequence of Protein disulfide-isomerase (P07237 whole entry): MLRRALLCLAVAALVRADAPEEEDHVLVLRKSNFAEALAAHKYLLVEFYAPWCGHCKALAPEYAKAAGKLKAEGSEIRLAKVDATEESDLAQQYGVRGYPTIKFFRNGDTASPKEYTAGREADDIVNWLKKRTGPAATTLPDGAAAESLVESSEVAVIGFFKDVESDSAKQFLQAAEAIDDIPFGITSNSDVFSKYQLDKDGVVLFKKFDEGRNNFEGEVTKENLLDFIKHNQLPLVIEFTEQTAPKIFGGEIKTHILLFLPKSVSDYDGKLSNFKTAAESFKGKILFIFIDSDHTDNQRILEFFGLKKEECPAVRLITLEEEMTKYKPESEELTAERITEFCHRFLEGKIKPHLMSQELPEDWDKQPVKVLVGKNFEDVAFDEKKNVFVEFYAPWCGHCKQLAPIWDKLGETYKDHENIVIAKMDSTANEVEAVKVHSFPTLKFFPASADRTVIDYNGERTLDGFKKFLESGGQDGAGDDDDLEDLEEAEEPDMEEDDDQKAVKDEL

Sequence of Kallikrein-7 (P49862 whole entry): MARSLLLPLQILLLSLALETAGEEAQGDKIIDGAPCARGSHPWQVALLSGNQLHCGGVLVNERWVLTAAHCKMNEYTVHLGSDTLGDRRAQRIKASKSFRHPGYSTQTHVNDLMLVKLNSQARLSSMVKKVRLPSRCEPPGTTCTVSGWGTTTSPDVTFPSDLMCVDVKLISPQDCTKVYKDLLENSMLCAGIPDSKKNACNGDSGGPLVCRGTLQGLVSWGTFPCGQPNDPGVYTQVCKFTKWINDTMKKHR

For `COc1ccc(C2C3=C(CC(C)(C)CC3=O)N(C)C3=C2C(=O)CC(C)(C)C3)cc1`, the AC50 (cells) was 2.07 µM (active).
In the case of `CNc1ccc(-c2cccc(CO)c2)cn1`, the EC50 (Kallikrein-7) is reported as > 7.72 µM (active).
For `Cc1ccc(C(=O)NC(=S)NNC(=O)c2ccccc2)cc1`, the EC50 [1] was 1.33 µM (active) and the IC50 [2] was 51.6 µM (inactive).
With `COC(=O)C1=C(C)N(Cc2ccc(Br)cc2)C(=S)NC1c1ccc(OC)cc1` (configuration not stated) the AC50 (HeLa) was > 47 µM (inactive), the AC50 [3] was 22.2 µM (active) and the AC50 (Cryptococcus neoformans) was > 60 µM (inactive). For the same compound, the AC50 (Cryptococcus neoformans; Cryptococcus neoformans) was 36.4 µM (active) and the AC50 (HEK293) was 22.2 µM (active).
In the case of `CCCC(=O)C1CCN(c2ncnc3c2CN(C(=O)c2ccc(-c4ccccc4)cc2)CC3)CC1`, the IC50 [4] is reported as 0.021 µM (active), the IC50 [5] is reported as 7.68 µM (active) and the IC50 [6] is reported as 0.14 µM (active).
For `CCC(C)NC(=O)CCC(=O)OC1O[C@H]2OC3(C)CC[C@H]4[C@H](C)CCC(C1C)C24OO3` (some centres not stated), the IC50 [7] was 468 µM (inactive) and the IC50 (Protein Wnt-3a) was 0.238 µM (active).
In the case of `Cc1nc(N)sc1N=Nc1ccc(Br)cc1`, the AC50 [8] is reported as 0.753 µM (active), the EC50 [9] is reported as < 0.1 µM (active) and the EC50 [10] is reported as > 67.5 µM (inactive). The EC50 [11] was 0.303 µM (active), the EC50 [12] was 0.28 µM (active) and the EC50 (H4) was > 120 µM (not active). For the same compound, the EC50 [13] was 0.285 µM (active).
For `Cc1cc(NC(=O)c2c(F)cccc2Cl)n(-c2nc3ccccc3[nH]2)n1`, the EC50 (Streptococcus) was 7.12 µM (active), the EC50 [14] was > 160 µM (inconclusive) and the IC50 [15] was > 7.72 µM (active). The IC50 [16] was > 69.5 µM (inactive), the EC50 [17] was 6.4 µM (active) and the EC50 [18] was > 38 µM (not active). The IC50 (Estrogen receptor beta) was > 50 µM (not active).
In the case of `CN(CCc1ccc(O)c(O)c1)c1ccnc2ccccc12`, the IC50 [19] is reported as 4.8 µM (active).
For `CCc1cc(CNC(=O)c2ccc(OC)c(OCCN3CCCCC3)c2)on1`, the IC50 [20] was 5.91 µM (active).
For `O=c1nc(Nc2cccc(OCc3ccccc3)c2)sc2ncccc12`, the IC50 [21] was 1.64 µM (active).
With `Fc1cccc(CN2C[C@@H]3N[C@H](C2)[C@H]3c2ccc(/C=C/c3ccccc3)cc2)c1` the AC50 [22] was 13.2 µM (active), the AC50 [23] was 13.7 µM (active) and the AC50 [24] was 18.8 µM (active).
For `O=C(Nc1nnc(-c2ccc3c(c2)OCCO3)o1)C1CCCCCC1`, the AC50 [25] was > 200 µM (inactive).
For `CCN(C)C(=O)C1(CCOc2ccccc2)CCN(Cc2ccc(O)c(Cl)c2)CC1`, the AC50 [26] was > 52 µM (inactive) and the AC50 [27] was 3 µM (active).
